Target: T1, ΔF508-CFTR (Homo sapiens, UniProt P13569, DEL508-508)
T1 construct: Primary lung epithelial cells homozygous for the Cystic Fibrosis-causing ΔF508 mutation were differentiated; endogenous in cells; host or cells: primary human bronchial epithelial cells (hBE), ΔF508/ΔF508
Test: hBE equivalent current (Ieq) assay, CFTR activity
Type: cell-based
Conditions: relative to a CFTR amplifier at 3 μM, ΔF508 homozygous hBE, 24 h treatment; for Activity 3 μM: compound at 3 μM; for Activity 10 μM: compound at 10 μM
Experimental: Primary lung epithelial cells homozygous for the Cystic Fibrosis-causing ΔF508 mutation were differentiated for a minimum of 4 weeks in an air-liquid interface on Costar 24 well HTS filter plates prior to the equivalent current (Ieq) measurements. Cells were apically mucus-washed for 30 minutes 24 h prior to treatment with compounds. The basolateral media was removed and replaced with media containing the compound of interest diluted to its final concentration from DMSO stocks. Treated cells were incubated at 37° C. and 5% CO2 for 24 hours. At the end of the treatment period, the media was changed to the Ieq experimental solution for 2 hours before the experiment and plates are maintained in a CO2-free incubator during this period. The plates containing the cells were then placed in pre-warmed heating blocks at 36° C.±0.5 for 15 minutes before measurements are taken. The transepithelial voltage (VT) and conductance (GT) were measured using a custom 24 channel current clamp (TECC-24) with 24 well electrode manifold. The Ieq assay measurements were made following additions with standardized time periods:
1. The baseline VT and GT values were measured for approximately 20 minutes.
2. Benzamil was added to block ENaC for 15 minutes.
3. Forskolin plus VX-770 were added to maximally activate ΔF508-CFTR for 27 minutes.
4. Bumetanide was added to inhibit the NaK2Cl cotransporter and shut-off secretion of chloride.
The activity data captured was the area under the curve (AUC) for the traces of the equivalent chloride current. The AUC was collected from the time of the forskolin/VX-770 addition until the inhibition by bumetanide addition. Correction in response to compound treatment was scored as the increase in the AUC for compound-treated samples over that of vehicle-treated samples.
The results are shown below in Table 1. + indicates activity <150% of a CFTR amplifier with compound at concentration shown and amplifier at 3 μM; ++ indicates activity >150% of a CFTR amplifier with compound at concentration shown and amplifier at 3 μM.

T1 sequence (P13569 with tags, fused parts or gaps DEL508-508): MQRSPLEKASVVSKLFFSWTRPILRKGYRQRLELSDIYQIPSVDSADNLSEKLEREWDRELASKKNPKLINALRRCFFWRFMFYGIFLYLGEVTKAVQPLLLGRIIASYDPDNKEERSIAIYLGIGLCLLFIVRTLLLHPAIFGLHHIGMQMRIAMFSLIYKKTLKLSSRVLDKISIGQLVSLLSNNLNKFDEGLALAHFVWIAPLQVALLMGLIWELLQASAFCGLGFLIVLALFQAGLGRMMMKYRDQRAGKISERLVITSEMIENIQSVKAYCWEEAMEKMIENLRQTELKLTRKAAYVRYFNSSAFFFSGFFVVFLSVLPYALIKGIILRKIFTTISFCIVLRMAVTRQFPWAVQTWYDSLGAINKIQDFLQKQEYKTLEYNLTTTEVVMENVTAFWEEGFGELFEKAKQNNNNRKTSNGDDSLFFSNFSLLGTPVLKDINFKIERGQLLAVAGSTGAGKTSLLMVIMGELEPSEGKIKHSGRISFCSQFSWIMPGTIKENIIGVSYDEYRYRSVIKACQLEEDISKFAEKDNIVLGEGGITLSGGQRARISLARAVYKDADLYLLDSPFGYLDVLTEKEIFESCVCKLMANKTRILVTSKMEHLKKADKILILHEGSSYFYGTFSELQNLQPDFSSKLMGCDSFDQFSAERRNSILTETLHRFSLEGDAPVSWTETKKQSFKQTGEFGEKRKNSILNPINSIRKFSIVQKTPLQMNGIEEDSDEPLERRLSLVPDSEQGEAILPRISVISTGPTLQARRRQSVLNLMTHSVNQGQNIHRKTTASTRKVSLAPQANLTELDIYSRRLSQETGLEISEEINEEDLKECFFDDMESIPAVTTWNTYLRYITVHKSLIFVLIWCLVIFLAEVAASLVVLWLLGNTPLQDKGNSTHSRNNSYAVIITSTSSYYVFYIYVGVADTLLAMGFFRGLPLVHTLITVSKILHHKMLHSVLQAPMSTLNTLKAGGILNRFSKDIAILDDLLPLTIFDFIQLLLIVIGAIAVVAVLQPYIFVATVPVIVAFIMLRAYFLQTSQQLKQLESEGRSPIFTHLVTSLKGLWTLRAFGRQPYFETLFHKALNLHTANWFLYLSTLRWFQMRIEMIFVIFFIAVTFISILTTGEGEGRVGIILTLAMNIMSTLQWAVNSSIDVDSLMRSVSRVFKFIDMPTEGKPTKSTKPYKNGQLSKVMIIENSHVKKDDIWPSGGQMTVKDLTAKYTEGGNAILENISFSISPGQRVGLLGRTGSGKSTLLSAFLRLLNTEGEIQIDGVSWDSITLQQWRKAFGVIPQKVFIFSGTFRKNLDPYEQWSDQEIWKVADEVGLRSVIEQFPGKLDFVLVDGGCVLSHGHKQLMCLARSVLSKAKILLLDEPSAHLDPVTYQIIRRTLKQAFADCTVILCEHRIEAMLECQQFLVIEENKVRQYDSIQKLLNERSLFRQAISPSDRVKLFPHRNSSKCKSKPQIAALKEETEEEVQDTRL

Row | SMILES | Activity 3 μM | Activity 10 μM
1 | COc1cccc(-c2ccc(=O)n(C(C)C(=O)Nc3ccc(C(F)(F)F)cc3F)n2)c1 (centres unmarked) [Compound 42, N-(2-Fluoro-4-(trifluoromethyl)phenyl)-2-(3-(3-methoxyphenyl)-6-oxopyridazin-1(6H)-yl)propanamide] | ++ (activity >150% of a CFTR amplifier with compound at concentration shown and amplifier at 3 μM) | ++ (activity >150% of a CFTR amplifier with compound at concentration shown and amplifier at 3 μM)
2 | CC(C)Oc1cccc(-c2ccc(=O)n(C(C)C(=O)Nc3ccc(C(F)(F)F)cc3)n2)c1 (centres unmarked) [Compound 49, 2-[6-Oxo-3-[3-(propan-2-yloxy)phenyl]-1,6-dihydropyridazin-1-yl]-N-[4-(trifluoromethyl)phenyl]propanamide] | ++ (activity >150% of a CFTR amplifier with compound at concentration shown and amplifier at 3 μM) | ++ (activity >150% of a CFTR amplifier with compound at concentration shown and amplifier at 3 μM)
3 | COc1cccc(-c2ccc(=O)n(C(C)C(=O)Nc3cc(O)c(C(C)(C)C)cc3C(C)(C)C)n2)c1 (centres unmarked) [Compound 26, N-(2,4-Di-tert-butyl-5-hydroxyphenyl)-2-[3-(3-methoxyphenyl)-6-oxo-1,6-dihydropyridazin-1-yl]propanamide] | + (activity <150% of a CFTR amplifier with compound at concentration shown and amplifier at 3 μM) | + (activity <150% of a CFTR amplifier with compound at concentration shown and amplifier at 3 μM)
4 | CCC(C(=O)Nc1ccc(C(F)(F)F)cc1)n1nc(-c2cccc(OC)c2)ccc1=O (centres unmarked) [Compound 38, 2-[3-(3-Methoxyphenyl)-6-oxo-1,6-dihydropyridazin-1-yl]-N-[4-(trifluoromethyl)phenyl]butanamide] | ++ (activity >150% of a CFTR amplifier with compound at concentration shown and amplifier at 3 μM) | ++ (activity >150% of a CFTR amplifier with compound at concentration shown and amplifier at 3 μM)
5 | COc1cccc(-c2ccc(=O)n(C(C)C(=O)Nc3cccc(C(F)(F)F)c3)n2)c1 (centres unmarked) [Compound 7, 2-[3-(3-Methoxyphenyl)-6-oxo-1,6-dihydropyridazin-1-yl]-N-[3-(trifluoromethyl)phenyl]propanamide] | + (activity <150% of a CFTR amplifier with compound at concentration shown and amplifier at 3 μM) | + (activity <150% of a CFTR amplifier with compound at concentration shown and amplifier at 3 μM)
6 | COc1cccc(-c2ccc(=O)n(C(C(=O)Nc3ccc(C(F)(F)F)cc3)C3CC3)n2)c1 (centres unmarked) [Compound 39, 2-Cyclopropyl-2-(3-(3-methoxyphenyl)-6-oxopyridazin-1(6H)-yl)-N-(4-(trifluoromethyl)phenyl)acetamide] | ++ (activity >150% of a CFTR amplifier with compound at concentration shown and amplifier at 3 μM) | ++ (activity >150% of a CFTR amplifier with compound at concentration shown and amplifier at 3 μM)
7 | COc1cccc(-c2ccc(=O)n(C(C)(C(=O)Nc3ccc(C(F)(F)F)cc3)c3ccccc3)n2)c1 (centres unmarked) [Compound 54, 2-(3-(3-Methoxyphenyl)-6-oxopyridazin-1(6H)-yl)-2-phenyl-N-(4-(trifluoromethyl)phenyl)propanamide] |  | + (activity <150% of a CFTR amplifier with compound at concentration shown and amplifier at 3 μM)
8 | COc1cccc(-c2ccc(=O)n(C(C)C(=O)Nc3ccccc3)n2)c1 (centres unmarked) [Compound 15, 2-[3-(3-Methoxyphenyl)-6-oxo-1,6-dihydropyridazin-1-yl]-N-phenylpropanamide] | + (activity <150% of a CFTR amplifier with compound at concentration shown and amplifier at 3 μM) | + (activity <150% of a CFTR amplifier with compound at concentration shown and amplifier at 3 μM)
9 | COc1cccc(-c2cc(C)c(=O)n(C(C)C(=O)Nc3cc(F)cc(F)c3)n2)c1 (centres unmarked) [Compound 20, N-(3,5-Difluorophenyl)-2-[3-(3-methoxyphenyl)-5-methyl-6-oxo-1,6-dihydropyridazin-1-yl]propanamide] | + (activity <150% of a CFTR amplifier with compound at concentration shown and amplifier at 3 μM) | + (activity <150% of a CFTR amplifier with compound at concentration shown and amplifier at 3 μM)
10 | CC(C(=O)Nc1ccc(C(F)(F)F)cc1)n1nc(-c2ccccc2)ccc1=O (centres unmarked) [Compound 28, 2-(6-oxo-3-phenyl-1,6-dihydropyridazin-1-yl)-N-[4-(trifluoromethyl)phenyl]propanamide] | ++ (activity >150% of a CFTR amplifier with compound at concentration shown and amplifier at 3 μM) | ++ (activity >150% of a CFTR amplifier with compound at concentration shown and amplifier at 3 μM)
11 | COc1cccc(-c2ccc(=O)n(C(C)C(=O)Nc3ccc(C#N)cc3)n2)c1 (centres unmarked) [Compound 44, N-(4-Cyanophenyl)-2-(3-(3-methoxyphenyl)-6-oxopyridazin-1(6H)-yl)propanamide] | + (activity <150% of a CFTR amplifier with compound at concentration shown and amplifier at 3 μM) | + (activity <150% of a CFTR amplifier with compound at concentration shown and amplifier at 3 μM)
12 | COc1cc(OC)cc(-c2ccc(=O)n(C(C)C(=O)Nc3cc(F)cc(F)c3)n2)c1 (centres unmarked) [Compound 3, N-(3,5-difluorophenyl)-2-[3-(3,5-dimethoxyphenyl)-6-oxo-1,6-dihydropyridazin-1-yl]propanamide] | ++ (activity >150% of a CFTR amplifier with compound at concentration shown and amplifier at 3 μM) | ++ (activity >150% of a CFTR amplifier with compound at concentration shown and amplifier at 3 μM)
13 | CC(C(=O)Nc1ccc(C(F)(F)F)cc1)n1nc(-c2cccc(Oc3ccccc3)c2)ccc1=O (centres unmarked) [Compound 51, 2-[3-[3-(Phenoxy)phenyl]-6-oxo-1,6-dihydropyridazin-1-yl]-N-[4-(trifluoromethyl)phenyl]propanamide] | ++ (activity >150% of a CFTR amplifier with compound at concentration shown and amplifier at 3 μM) | ++ (activity >150% of a CFTR amplifier with compound at concentration shown and amplifier at 3 μM)
14 | COc1cccc(-c2ccc(=O)n(C(C)C(=O)Nc3ccc(Cl)cc3)n2)c1 (centres unmarked) [Compound 14, N-(4-Chlorophenyl)-2-[3-(3-methoxyphenyl)-6-oxo-1,6-dihydropyridazin-1-yl]propanamide] |  | ++ (activity >150% of a CFTR amplifier with compound at concentration shown and amplifier at 3 μM)
15 | CC(C(=O)Nc1cc(F)cc(F)c1)n1nc(-c2cccc(Cl)c2)ccc1=O (centres unmarked) [Compound 1, 2-[3-(3-Chlorophenyl)-6-oxo-1,6-dihydropyridazin-1-yl]-N-(3,5-difluorophenyl)propanamide] | ++ (activity >150% of a CFTR amplifier with compound at concentration shown and amplifier at 3 μM) | ++ (activity >150% of a CFTR amplifier with compound at concentration shown and amplifier at 3 μM)
16 | CC(C(=O)Nc1ccc(C(F)(F)F)cc1)n1nc(-c2ccccc2C#N)ccc1=O (centres unmarked) [Compound 35, 2-[3-(2-Cyanophenyl)-6-oxo-1,6-dihydropyridazin-1-yl]-N-[4-(trifluoromethyl)phenyl]propanamide] | + (activity <150% of a CFTR amplifier with compound at concentration shown and amplifier at 3 μM) | + (activity <150% of a CFTR amplifier with compound at concentration shown and amplifier at 3 μM)
17 | CC(C(=O)Nc1cc(F)cc(F)c1)n1nc(-c2cccc(-c3ccccc3)c2)ccc1=O (centres unmarked) [Compound 5, N-(3,5-Difluorophenyl)-2-[6-oxo-3-(3-phenylphenyl)-1,6-dihydropyridazin-1-yl]propanamide] | + (activity <150% of a CFTR amplifier with compound at concentration shown and amplifier at 3 μM) | + (activity <150% of a CFTR amplifier with compound at concentration shown and amplifier at 3 μM)
18 | CC(C(=O)Nc1cc(F)cc(F)c1)n1nc(-c2cccc(N(C)C)c2)ccc1=O (centres unmarked) [Compound 4, N-(3,5-Difluorophenyl)-2-[3-[3-(dimethylamino)phenyl]-6-oxo-1,6-dihydropyridazin-1-yl]propanamide] |  | + (activity <150% of a CFTR amplifier with compound at concentration shown and amplifier at 3 μM)
19 | CC(C(=O)Nc1ccc(C(F)(F)F)cc1)n1nc(-c2ccccc2C(F)(F)F)ccc1=O (centres unmarked) [Compound 32, 2-[6-Oxo-3-[2-(trifluoromethyl)phenyl]-1,6-dihydropyridazin-1-yl]-N-[4-(trifluoromethyl)phenyl]propanamide] | + (activity <150% of a CFTR amplifier with compound at concentration shown and amplifier at 3 μM) | + (activity <150% of a CFTR amplifier with compound at concentration shown and amplifier at 3 μM)

— US20190256474A1, “N-PHENYL-2-(3-PHENYL-6-OXO-1,6-DIHYDROPYRIDAZIN-1-YL)ACETAMIDE DERIVATIVES FOR TREATING CYSTIC FIBROSIS” (Proteostasis Therapeutics, Inc., priority 2016, published 2019)
